# According to ChEMBL document CHEMBL3526069, “Human pharmacokinetic prediction of UDP-glucuronosyltransferase substrates with an animal scale-up approach” (Drug Metab Dispos, 2011):
# Key:
# [1] = Drug metabolism in gallbladder-cannulated mouse assessed as glucuronide concentration in bile and urine at 0.2 mg/kg, iv up to 24 hrs by LC/MS/MS analysis; type: ADME, organism-based; parameters: dose 0.2 mg/kg, route intravenous; settings: in vivo
# [2] = Drug metabolism in bile duct-cannulated dog assessed as glucuronide concentration in bile and urine at 0.2 mg/kg, iv up to 24 hrs by LC/MS/MS analysis; type: ADME, organism-based, Canis lupus familiaris; parameters: dose 0.2 mg/kg, route intravenous; settings: in vivo
# [3] = Plasma clearance in human
# [4] = Plasma clearance in po dosed human
# [5] = Drug metabolism in bile duct-cannulated rat assessed as glucuronide concentration in bile and urine at 0.2 mg/kg, iv up to 24 hrs by LC/MS/MS analysis; type: ADME, organism-based; parameters: dose 0.2 mg/kg, route intravenous; settings: in vivo
# in vitro [6] = settings: mouse, plasma
# Description: Fraction unbound in mouse plasma by ultracentrifugation method
# in vitro [7] = settings: rat, plasma
# Description: (§1) Fraction unbound in rat plasma by ultracentrifugation method
# in vitro [8] = settings: rhesus monkey, plasma
# Description: Fraction unbound in monkey plasma by ultracentrifugation method
# in vitro [9] = settings: dog, plasma
# Description: Fraction unbound in dog plasma by ultracentrifugation method
# in vitro [10] = settings: human, plasma
# Description: (§2) Fraction unbound in human plasma by ultracentrifugation method
# in vitro [11] = settings: mouse
# Description: Ratio of drug level in blood to plasma in mouse
# in vitro [12] = settings: rat
# Description: Ratio of drug level in blood to plasma in rat
# in vitro [13] = settings: rhesus monkey
# Description: Ratio of drug level in blood to plasma in monkey
# in vitro [14] = settings: dog
# Description: Ratio of drug level in blood to plasma in dog
# in vitro [15] = settings: human
# Description: Ratio of drug level in blood to plasma in human
# clinical [16] = settings: human, in vivo
# Description: (§3) Volume of distribution at steady state in human
# clinical [17] = settings: human, in vivo; remark: listed apart in the source
# [18] = Drug metabolism in human assessed as glucuronide concentration in urine
# [19] = Drug metabolism in bile duct-cannulated cynomolgus monkey assessed as glucuronide concentration in bile and urine at 0.2 mg/kg, iv up to 24 hrs by LC/MS/MS analysis; settings: in vivo
# Plasma [20] = settings: rat
# Description: as §1
# Homo sapiens [21] = organism: Homo sapiens; settings: in vivo
# Description: as §3
# Homo sapiens [22] = organism: Homo sapiens; settings: in vivo; remark: listed apart in the source
# Plasma [23] = settings: human
# Description: as §2
Compound,Fm [1],Fm [2],Fm [5],fraction unbound (in vitro [6]),fraction unbound (in vitro [7]),fraction unbound (in vitro [8]),fraction unbound (in vitro [9]),fraction unbound (in vitro [10]),blood plasma ratio (in vitro [11]),blood plasma ratio (in vitro [12]),blood plasma ratio (in vitro [13]),blood plasma ratio (in vitro [14]),blood plasma ratio (in vitro [15]),Vd (clinical [16]),half-life (clinical [17]),Fm [18],Fm [19],clearance ([3]; plasma),CL/F ([4]; plasma),also measured
CC(C(=O)O)c1cccc(C(=O)c2ccccc2)c1 (stereo not drawn) [KETOPROFEN],0.01,0.163,,,,,,,,,,,,,,,,,,
O=C([O-])Cc1ccccc1Nc1c(Cl)cccc1Cl.[Na+] [DICLOFENAC SODIUM],0.261,0.522,0.065,0.005,0.006,0.005,0.003,0.003,0.67,1.57,1.01,1.01,0.71,0.22 L/kg,0.726 h,0.15,0.29,,,clearance ([3]; in vivo): 3.5 mL/min/kg; CL/F ([4]; in vivo): 6.48 mL/min/kg
CN(C)CCCN1c2ccccc2CCc2ccccc21.Cl [IMIPRAMINE HYDROCHLORIDE],,0.005,0.014,0.063,,0.03,,0.104,,,,,,12 L/kg,10.7 h,0.1,0.04,,,
O=C(c1ccc(OCCN2CCCCC2)cc1)c1c(-c2ccc(O)cc2)sc2cc(O)ccc12 [RALOXIFENE],0.243,0.196,0.214,0.006,,0.004,0.003,0.002,,,,,,,,0.9,0.38,14.7 mL/min/kg,,Fu (Plasma [20]): 0.004; Vdss (Homo sapiens [21]): 47 L/kg; t1/2 (Homo sapiens [22]): 36.9 h
Cc1ccc(C)c(OCCCC(C)(C)C(=O)O)c1 [GEMFIBROZIL],0.173,0.69,0.366,0.041,0.01,0.007,0.004,0.005,0.68,0.83,0.67,0.64,0.75,1.11 L/kg,7.6 h,0.4,0.35,,,clearance ([3]; in vivo): 1.7 mL/min/kg; CL/F ([4]; in vivo): 1.73 mL/min/kg
O=C1Nc2ccc(Cl)cc2C(c2ccccc2Cl)=NC1O (stereo not drawn) [LORAZEPAM],0.436,0.785,0.085,0.158,0.09,0.103,0.073,0.057,0.92,1.09,0.87,0.77,1.14,,12.4 h,0.81,0.53,1.21 mL/min/kg,1.21 mL/min/kg,
Cc1cn([C@H]2C[C@H](N=[N+]=[N-])[C@@H](CO)O2)c(=O)[nH]c1=O [ZIDOVUDINE],0.034,0.134,0.02,0.896,0.734,,0.827,0.695,,,,,,,0.832 h,0.85,0.08,,33.3 mL/min/kg,
NS(=O)(=O)c1cc(C(=O)O)c(NCc2ccco2)cc1Cl [FUROSEMIDE],0.005,0.17,0.052,,,,,,,,,,,,,0.14,0.671,,,
COc1ccc2c(c1)c(CC(=O)O)c(C)n2C(=O)c1ccc(Cl)cc1 [INDOMETHACIN],0.001,0.01,0.004,0.009,0.004,0.005,0.005,,0.46,0.97,1.06,0.65,0.98,0.925 L/kg,6.77 h,0.217,0.94,1.58 mL/min/kg,1.58 mL/min/kg,Fu (Plasma [23]): 0.1
CCCc1nc2c(C)cc(-c3nc4ccccc4n3C)cc2n1Cc1ccc(-c2ccccc2C(=O)O)cc1,0.118,0.99,0.396,0.071,0.007,0.008,0.018,0.003,0.54,1.25,1.16,1.18,1.24,,7.29 h,,0.47,,17.8 mL/min/kg,
COc1c(C)c2c(c(O)c1C/C=C(\C)CCC(=O)O)C(=O)OC2 [MYCOPHENOLIC ACID],0.966,0.99,0.096,0.028,0.004,0.011,0.003,,0.81,0.94,0.97,0.75,0.69,4.75 L/kg,16.6 h,0.9,0.54,3.31 mL/min/kg,3.54 mL/min/kg,Fu (Plasma [23]): 0.003
C[C@H]1COc2c(N3CCN(C)CC3)c(F)cc3c(=O)c(C(=O)O)cn1c23.Cl [LEVOFLOXACIN HYDROCHLORIDE],0.229,0.061,0.644,,0.826,0.871,0.922,0.784,,,,,,1.2 L/kg,7.3 h,< 0.015,0.82,1.9 mL/min/kg,1.9 mL/min/kg,
